This passage reports EC50 results from patent US7799812B2, “Reverse isoxazoles” (Novartis AG, priority 2006, dated 2010).

Where only a bound is given, the exact number is not on record here.

The assay deals with T1, human EDG-1 (S1P1) (Homo sapiens, UniProt P21453).
T1 construct: c-myc (N); expressed in transfected cells
T1 sequence (P21453 whole entry): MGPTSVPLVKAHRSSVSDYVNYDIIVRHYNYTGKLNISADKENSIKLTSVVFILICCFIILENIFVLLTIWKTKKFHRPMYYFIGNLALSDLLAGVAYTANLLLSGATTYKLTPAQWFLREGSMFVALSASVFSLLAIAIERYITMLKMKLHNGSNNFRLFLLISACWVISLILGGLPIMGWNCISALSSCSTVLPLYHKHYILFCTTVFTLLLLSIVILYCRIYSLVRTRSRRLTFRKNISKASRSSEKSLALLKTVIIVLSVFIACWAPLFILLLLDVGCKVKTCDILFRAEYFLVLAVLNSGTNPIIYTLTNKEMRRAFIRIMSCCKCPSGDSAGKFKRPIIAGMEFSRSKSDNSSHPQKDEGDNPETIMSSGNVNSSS
Briefly: S1P1 (EDG-1) GTP [γ-35S] binding assay, membranes from CHO cells. In kind it is biochemical. On the procedure:
A. In vitro: GPCR Activation Assay Measuring GTP [γ-^35S] Binding to Membranes Prepared from CHO Cells Expressing Human EDG Receptors
S1P1 (EDG-1) GTP [γ-^35S] binding assay: Homogenized membranes are prepared from CHO cell clones stably expressing a human EDG-1 N-terminal c-myc tag. Cells are grown in suspension in two 850 cm^2 roller bottles for three or fours days before harvesting. The cells are centrifuged down, washed once with cold PBS, and resuspended in ≦20 ml of Buffer A (20 mM HEPES, pH 7.4, 10 mM EDTA, EDTA-free complete protease inhibitor cocktail [1 tablet/25 ml]). The cell suspension is homogenized on ice, using a Polytron homogenizer at 30000 rpm at three intervals of 15 seconds each. The homogenate is first centrifuged at 2000 rpm on a tabletop low speed centrifuge for 10 minutes. The supernatant, after passing through a cell strainer, is then re-centrifuged at 50,000×g for 25 minutes at 4° C. The pellet is resuspended into buffer B (15% glycerol, 20 mM HEPES, pH 7.4, 0.1 mM EDTA, EDTA-free complete protease inhibitor cocktail [1 tablet/10 ml]). Protein concentration of the preparation is determined using the BCA Protein Assay kit (Pierce) using BSA as standard. The membranes are aliquoted and kept frozen at −80° C.
Solutions of test compounds ranging from 10 mM to 0.01 nM are prepared in DMSO. S1P is diluted in 4% BSA solution as positive controls. The desired amount of membrane preparation is diluted with ice-cold assay buffer (20 mM HEPES, pH 7.4, 100 mM NaCl, 10 mM MgCl2, 0.1% Fatty acid-free BSA, 5 μM GDP) and vortexed well. 2 μl or less of compound is distributed into each well of a round-bottom 96-well polystyrene assay plate, followed by addition of 100 μl of diluted membranes (3-10 μg/well) and kept on ice until the addition of hot GTPγS. [^35S]-GTPγS is diluted 1:1000 (v/v) with cold assay buffer and 100 μl is added into each well. The reaction is carried out at room temperature for 90 minutes before the membranes are harvested onto Perkin-Elmer Unifilter® GF/B-96 filter plate using a Packard Filtermate Harvester. […]
For `NS(=O)(=O)c1ccc(-c2nc(-c3ccc(-c4ccccc4)c(C(F)(F)F)c3)no2)cc1` [Example 13], the EC50 – broadly, the midpoint of the concentration-response curve – is below 1000 nM.
Turning to `O=C(O)CCC(=O)Nc1ccc(-c2nc(-c3ccc(C4CCCCC4)c(C(F)(F)F)c3)no2)cc1` [Example 21], the EC50 is below 1000 nM.
In turn, `O=C(O)CCNS(=O)(=O)c1ccc(-c2nc(-c3ccc(-c4ccccc4)c(C(F)(F)F)c3)no2)cc1` [Example 4, 3-{4-[3-(2-Trifluoromethyl-biphenyl-4-yl)-[1,2,4]oxadiazol-5-yl]-benzene-sulfonylamino}-propionic acid] yielded an EC50 below 1000 nM.
